Tests used:
MRSE = experiment: Zones of inhibition of impregnated catheter segments, modified Kirby-Bauer method; format: cell-based, Staphylococcus epidermidis
Description: (§1) To evaluate the antimicrobial activity of central venous catheters treated with α-lipoic acid or its combination with gentamicin, segments of 7 French triple lumen polyurethane central venous catheters were impregnated with α-lipoic acid, gentamicin, or the combination of lipoic acid and gentamicin using the same patented method described in Example 1 with 50 mg/ml of each agent (for the final solution volume). After the impregnation process and drying, zones of inhibition were performed on one-centimeter segments according to a modified Kirby-Bauer method against MSSE, MRSE, MRSA, K. pneumoniae, E. coli, P. mirabilis, Pseudomonas aeruginosa, and Candida albicans. Each segment was half embedded in the center of a Muller-Hinton agar plate that had been previously inoculated with an individual organism. Prior to placing the catheter segments in agar, each organism was grown for 18 hours in TSB to a concentration of 0.5 McFarland (10^8 cfu/ml). A cotton swab was placed in the suspension and streaked across the surface of the Muller-Hinton agar plate to cover the entire plate. All plates were placed in a 37° C. incubator for 24 hours. Zones were measured in mm after the incubation period (Table 2).
(§2) To evaluate the antimicrobial activity of central venous catheters treated with α-lipoic acid or its combination with doxycycline, segments of 7 French triple lumen polyurethane central venous catheters were impregnated with doxycycline or the combinations of α-lipoic acid and doxycycline using the same patented method described in Example 1 (U.S. Pat. No. 6,589,591) with 50 mg/ml of each agent (for the final solution volume). After the impregnation process and drying, zones of inhibition were performed on one-centimeter segments according to a modified Kirby-Bauer method against MSSE, MRSE, MRSA, K. pneumoniae, E. coli, P. aeruginosa, P. mirabilis, and C. albicans as described in Example 2. Zones of inhibition were measured in mm after the incubation period (Table 3).
(§3) To evaluate the antimicrobial activity of central venous catheters treated with lipoamide or its combination with levofloxacin, segments of 7 French triple lumen polyurethane central venous catheters were impregnated with levofloxacin or the combinations of lipoamide and levofloxacin using the same patented method described in Example 1 (U.S. Pat. No. 6,589,591) with 100 mg/ml (final solution volume) of each agent. After the impregnation process and drying, zones of inhibition were performed on one-centimeter segments according to a modified Kirby-Bauer method against MSSE, MRSE, MRSA, vancomycin-resistant Enterococcus (VRE), K. pneumoniae, E. coli, P. aeruginosa, P. mirabilis, and C. albicans as described in Example 2. Zones of inhibition were measured in mm after the incubation period (Table 4).
as §3, with “doxycycline,” for “levofloxacin,”, “doxycycline” for “levofloxacin”, “5).” for “4).”
(§4) To evaluate the antimicrobial activity of central venous catheters treated with dihydrolipoic acid, segments of 7 French triple lumen polyurethane central venous catheters were impregnated with dihydrolipoic acid using the same patented method described in Example 1 (U.S. Pat. No. 6,589,591) with 25 mg/ml (final solution volume) of the agent. […]

MSSE = experiment: as above; format: cell-based, Staphylococcus epidermidis
Description: as §1, §2, §3
as §3, with “doxycycline,” for “levofloxacin,”, “doxycycline” for “levofloxacin”, “5).” for “4).”
as §4

Candida albicans = experiment: as above; format: cell-based
Description: as §1, §2, §3
as §3, with “doxycycline,” for “levofloxacin,”, “doxycycline” for “levofloxacin”, “5).” for “4).”
as §4

Escherichia coli = experiment: as above; format: cell-based
Description: as §1, §2, §3
as §3, with “doxycycline,” for “levofloxacin,”, “doxycycline” for “levofloxacin”, “5).” for “4).”
as §4

Klebsiella pneumoniae II = experiment: as above; format: cell-based
Description: as §1, §2, §3
as §3, with “doxycycline,” for “levofloxacin,”, “doxycycline” for “levofloxacin”, “5).” for “4).”
as §4

Klebsiella pneumoniae I = experiment: as above; format: cell-based
Description: as §1, §2, §3
as §3, with “doxycycline,” for “levofloxacin,”, “doxycycline” for “levofloxacin”, “5).” for “4).”
as §4

common pathogens = experiment: Antimicrobial activity of impregnated catheters, overall conclusion from Tables 1-8; format: cell-based; details: conclusion in words from Tables 1-8
[1] = Staphylococcus epidermidis, catheter impregnated with 100 mg/ml of each agent
[2] = catheter impregnated with 100 mg/ml of each agent
[3] = Staphylococcus epidermidis, catheter impregnated with 50 mg/ml of each agent, 37° C., 24 hours
[4] = catheter impregnated with 50 mg/ml of each agent, 37° C., 24 hours
[5] = catheter impregnated with 25 mg/ml of the agent

Structure (SMILES) | zone of inhibition at 100000 µg/mL (MRSE; [1]) [mm] | zone of inhibition at 100000 µg/mL (MSSE; [1]) [mm] | zone of inhibition at 100000 µg/mL (Candida albicans; [2]) [mm] | zone of inhibition at 100000 µg/mL (Escherichia coli; [2]) [mm] | zone of inhibition at 100000 µg/mL (Klebsiella pneumoniae II; Klebsiella pneumoniae II, catheter impregnated with 100 mg/ml of each agent) [mm] | zone of inhibition at 100000 µg/mL (Klebsiella pneumoniae I; [2]) [mm] | intrinsic antimicrobial activity (common pathogens) | zone of inhibition at 50000 µg/mL (MRSE; [3]) [mm] | zone of inhibition at 50000 µg/mL (MSSE; [3]) [mm] | zone of inhibition at 50000 µg/mL (Candida albicans; [4]) [mm] | zone of inhibition at 50000 µg/mL (Escherichia coli; [4]) [mm] | zone of inhibition at 50000 µg/mL (Klebsiella pneumoniae II; Klebsiella pneumoniae, Klebsielle pneuminiae II, catheter impregnated with 50 mg/ml of each agent, 37° C., 24 hours) [mm] | zone of inhibition at 50000 µg/mL (Klebsiella pneumoniae I; [4]) [mm] | Zones of inhibition (MRSE; [5]) [mm] | Zones of inhibition (MSSE; [5]) [mm] | Zones of inhibition (Candida albicans; [5]) [mm] | Zones of inhibition (Escherichia coli; [5]) [mm] | Zones of inhibition (Klebsiella pneumoniae II; Klebsiella pneumoniae II, catheter impregnated with 25 mg/ml of the agent) [mm] | Zones of inhibition (Klebsiella pneumoniae I; [5]) [mm]
NC(=O)CCCCC1CCSS1 (stereo not drawn) [Lipoamide, lipoamide] | 16 | 24 | 6 | 10 | 13 | 12 | unexpected intrinsic antimicrobial activities | – | – | – | – | – | – | – | – | – | – | – | –
O=C(O)CCCCC1CCSS1 (stereo not drawn) [Lipoic acid, 1,2-dithiolane-3-pentanoic acid] | – | – | – | – | – | – | unexpected intrinsic antimicrobial activities | 22 | 32 | 10 | 12 | 18 | 20 | – | – | – | – | – | –
O=C(O)CCCCC(S)CCS (stereo not drawn) [Dihydrolipoic acid, 6,8-dimercaptooctanoic acid] | – | – | – | – | – | – | unexpected intrinsic antimicrobial activities | – | – | – | – | – | – | 21 | 25 | 13 | 0 | 0 | 0

From US9956319B2, “Compositions useful as antibiofilm or antimicrobial agents and methods using same” (BAYLOR COLLEGE OF MEDICINE, priority 2012, dated 2018)
